A short description of series [1]: LD50 acute toxicity in mice, i.p. and p.o. (Weil method). The following applies: mouse, in vivo. On the procedure:
The LD50 of the novel compounds of the invention was determined in mice, both i.p. and p.o., following the method described by C. S. Weil, Biometrics, 8, 249 (1952).

The subject of a further series is urinary bladder. In words: Cystometric recordings in conscious rats (urodynamic parameters). The series is classed as in vivo. The following applies: conscious rat, perfusion started 60 min after administration. As for the experimental part: The activity on the urodynamic parameters was detected by cystometric recordings, carried out in conscious rats, according to the method of […] et al, IRCS Medicinal Science, in press (1986), similar to that described by Sjogren, Acta Pharmacol. Toxicol., 39, 177 (1976). The intravesical pressure was recorded during a continuous infusion of saline (37° C.) into the urinary bladder at the constant rate of 0.15 ml/min. […] The perfusion started 60 minutes after administration of the compound.

Read-outs that look alike come from different tables or passages of the source.

As to `COC(=O)C1=C(C)NC(C)=C(C(=O)OC)C1c1cccc2c(=O)c(C)c(-c3ccccc3)oc12` [i, Dimethyl 2,6-dimethyl-4-(3-methylflavon-8-yl)-1,4-dihydropyridine-3,5-dicarboxylate], the LD50 (as a rule, the dose expected to kill half of the subjects tested) is 889 mg/kg in series [1] (ip, read-out: LD50 i.p.) and more than 3000 mg/kg in series [1] (po, read-out: LD50 p.o.). Besides, the “% Change BVC (bladder volume capacity)” value is recorded as “+18%” in the series with urinary bladder (10 mg/kg p.o.) and “+21%” with urinary bladder (30 mg/kg p.o.). For the same compound, the “% Change MP (micturition pressure)” value is -14% in the series on urinary bladder (10 mg/kg p.o.) and -19% with urinary bladder (30 mg/kg p.o.).

For the compound `CC1=C(C(=O)OCCCl)C(c2cccc3c(=O)c(C)c(-c4ccccc4)oc23)C(C(=O)OC(C)C)=C(C)N1` (stereo not drawn) [iii, Isopropyl beta-chloroethyl 2,6-dimethyl-4-(3-methylflavon-8-yl)-1,4-dihydropyridine-3,5-dicarboxylate], in series [1] (ip, read-out: LD50 i.p.), the LD50 is more than 1000 mg/kg. Also, the LD50 in series [1] (po, read-out: LD50 p.o.) was more than 3000 mg/kg. Also, in the series on urinary bladder (30 mg/kg p.o.), the “% Change BVC (bladder volume capacity)” value is on record as “+15%” and the “% Change MP (micturition pressure)” value was -1%.

Take `CC1=C(C(=O)OCCN2CCCCC2)C(c2cccc3c(=O)c(C)c(-c4ccccc4)oc23)C(C(=O)OC(C)C)=C(C)N1` (centres unmarked) [iv, Isopropyl 2,N-piperidinoethyl 2,6-dimethyl-4-(3-methylflavon-8-yl)-1,4-dihydropyridine-3,5-dicarboxylate]: the LD50 is 222 mg/kg in series [1] (ip, read-out: LD50 i.p.) and more than 3000 mg/kg in series [1] (po, read-out: LD50 p.o.).

On to `CC1=C(C(=O)OCCN(C)Cc2ccccc2)C(c2cccc3c(=O)c(C)c(-c4ccccc4)oc23)C(C(=O)OC(C)C)=C(C)N1` (centres unmarked) [v, isopropyl 2-(N-benzyl-N-methylamino)ethyl 2,6-dimethyl-4-(3-methylflavon-8-yl)-1,4-dihydropyridine-3,5-dicarboxylate], for which the LD50 in series [1] (ip, read-out: LD50 i.p.) is 959 mg/kg; in series [1] (po, read-out: LD50 p.o.), more than 3000 mg/kg. Also, the entries for the “% Change BVC (bladder volume capacity)” value in the series on urinary bladder (10 mg/kg p.o.) and in the series with urinary bladder (30 mg/kg p.o.) were “+19%” and “+22%”, respectively. For the same compound, the “% Change MP (micturition pressure)” value with urinary bladder (10 mg/kg p.o.) was -16%; with urinary bladder (30 mg/kg p.o.) it was -23%.

Take `CC1=C(C(=O)OCCN(C)CCC(c2ccccc2)c2ccccc2)C(c2cccc3c(=O)c(C)c(-c4ccccc4)oc23)C(C(=O)OC(C)C)=C(C)N1` (centres unmarked) [vi, isopropyl 2-(N-(3,3-diphenylpropyl)-N-methylamino)ethyl 2,6-dimethyl-4-(3-methylflavon-8-yl)-1,4-dihydropyridine-3,5-dicarboxylate]: the LD50 in series [1] (ip, read-out: LD50 i.p.) is more than 1000 mg/kg. In addition, the LD50 in series [1] (po, read-out: LD50 p.o.) was more than 3000 mg/kg. In the series on urinary bladder (30 mg/kg p.o.), the “% Change BVC (bladder volume capacity)” value is reported as “+31%” and the “% Change MP (micturition pressure)” value is on record as -1%.

Consider `CCOC(=O)C1=C(C)NC(C)=C(C(=O)OC)C1c1cccc2c(=O)c(C)c(-c3ccccc3)oc12` (centres unmarked) [viii, Methyl ethyl 2,6-dimethyl-4-(3-methylflavon-8-yl)-1,4-dihydropyridine-3,5-dicarboxylate], for which the 50% lethal dose (LD50) was more than 1000 mg/kg in series [1] (ip, read-out: LD50 i.p.) and more than 3000 mg/kg in series [1] (po, read-out: LD50 p.o.).

As to `C#CCOC(=O)C1=C(C)NC(C)=C(C(=O)OC)C1c1cccc2c(=O)c(C)c(-c3ccccc3)oc12` (centres unmarked) [xii, Methyl propargyl 2,6-dimethyl-4-(3-methylflavon-8-yl)-1,4-dihydropyridine-3,5-dicarboxylate], the LD50 in series [1] (ip, read-out: LD50 i.p.) was 597 mg/kg; in series [1] (po, read-out: LD50 p.o.) it was more than 3000 mg/kg.

Source of the values: patent US4806534A, “Therapeutically active flavonyl-1,4-dihydrophyridines” (Recordati S.A., Chemical & Pharmaceutical Company, priority 1985, dated 1989).
